This is an account of results in US5449667A, “Amidothiophosphate derivative and insecticide, nematocide and acaricide containing the same as active ingredient” (priority 1993, dated 1995).

Each structure is given as a SMILES string.

The nature of series [1]: Acute toxicity in oral application to mice. The note with it: mouse, in vivo, ICR male mice, after seven days. How it is done:
Biological Test 9 Acute Toxicity in Oral Application to Mice
Each of the present compound was diluted with corn oil to a predetermined concentration. After subjecting the mice to a twenty-hour fasting, 0.1 ml of the diluted solution per 10 g weight was forcibly applied into the stomach of each ICR male 6-week old mouse (weight: 24 to 31 g). The mice were given food and water four hours after the application and thereafter regularly fed and watered, and kept in a cage. After seven days, the mortality was examined for the mice (4 mice/group).

A further series has as its system root-knot nematodes. As to the kind of experiment: Activity against root-knot nematodes. Type of series: in vivo. Details: key: -: substantially no root knots; +: several to ten odds root knots; ++: larger number of root knots (heavier damage than +). The conditions noted are these: 25 ppm active ingredient in soil, tomato root, after four weeks. How it is done: Biological Test 6 Activity Against Root-knot Nematodes
One ml of a 500 ppm aqueous solution of each of the present compounds obtained by diluting each emulsifiable concentrate prepared from each of the present compounds according to the formulation example 1 was mixed with 19 g of soil contaminated with root-knot nematodes (concentration of active ingredient in soil: 25 ppm). After the soil was kept at 27° C. for 24 hours, the root of a tomato plant (approximately two weeks after sprouting) in a cup was covered with the soil and some water was given to the plant. After four weeks, damage to the root of the tomato plant was evaluated according to the following criteria:
-: substantially no root knots
+: several to ten odds root knots
++: larger number of root knots (heavier damage than +)

In the next series the test system is Tetranychus cinnabarinus. Description: Activity against Tetranychus cinnabarinus. The note with it: 500 ppm, 15 ml spray plus 2 ml soil injection, kidney bean, after eight days. Details: key: -: substantially no damage; +: little damage; ++: heavy damage. Format: in vivo. On the procedure: Biological Test 8 Activity Against Tetranychus cinnabarinus
Ten male mites (Tetranychus cinnabarinus) per leaf were placed on a pot-planted kidney bean (Phasseolus vulgaris: seven days after sowing) and kept in a thermostatic chamber. After six days, 15 ml of a 500 ppm aqueous solution obtained by diluting each emulsifiable concentrate of each of the present compounds according to the formulation example 1 was sprayed in a pot simultaneously with injection of 2 ml of the solution into soil. After eight days, damage to the plant by Tetranychus cinnabarinus was evaluated according to the following criteria:
-: substantially no damage

The test system of series [2] is larvae of Diabrotica undecimpunctata. Description: Insecticidal activity against larvae of Diabrotica undecimpunctata. Format: in vivo. The conditions noted are these: 1 ml of 50 ppm on filter paper, approximately thirty eggs, after eight days. On the procedure: Biological Text 5 Insecticidal Activity Against Larvae of Diabrotica undecimpunctata
Filter paper of 5.5 cm in diameter was laid in the bottom of a polyethylene cup (diameter: 5.5 cm). After 1 ml of a 50 ppm aqueous solution obtained by diluting each of the emulsifiable concentrate prepared from each of the present compounds according to the formulation example 1 was dropped on the filter paper and one sprouting corn crop was placed as bait on the paper, approximately thirty eggs of Diabrotica undecimpunctata were left on the filter paper. After eight days, the rate of hatched larvae was examined. The activity were evaluated according to the following criteria:
B: Mortality not less than 90% but less than 100%
C: Mortality less than 90%

Series [3] concerns larvae of Culex pipiens pallens. As to the kind of experiment: Insecticidal activity against larvae of Culex pipiens pallens. Format: in vivo. The note with it: 3.5 ppm active ingredient in water, twenty last-instar larvae, after one day. On the procedure:
Biological Test 7 Insecticidal Activity Against Larvae of Culex pipiens pallens
Each of emulsifiable concentrates prepared from each of the present compounds according to the formulation example 1 was diluted with water, and 0.7 ml of the diluted solution was added to 100 ml of ion-exchanged water (concentration of active ingredient: 3.5 ppm). Twenty last-instar larvae of Culex pipiens pallens were left in the water. After one day, the activity was evaluated according to the following criteria:
A: Mortality not less than 90%
B: Mortality not less than 10% but less than 90%
C: Mortality less than 10%

For a further series, the system named is Musca domestica. As to the kind of experiment: Insecticidal activity against Musca domestica. Type of series: in vivo. The note with it: 24 h, 0.7 ml of 500 ppm on filter paper, ten female house flies, after one day. How it is done:
Biological Test 4 Insecticidal Activity Against Musca domestica
Filter paper of 5.5 cm in diameter was laid in the bottom of a polyethylene cup (diameter: 5.5 cm). After 0.7 ml of a 500 ppm aqueous solution obtained by diluting each emulsifiable concentrate prepared from each of the present compounds according to the formulation example 1 was dropped on the filter paper and approximately 30 mg of sucrose was uniformly scattered, and put on the filter paper as bait, ten female house flies (Musca domestica) were left in the cup with a cover. After one day, the mortality was examined for the flies.

Series [4] has as its system larvae of Spodoptera litura. As to the kind of experiment: Insecticidal activity against larvae of Spodoptera litura. Type of series: in vivo. The note with it: 144 h, 4-instar larvae, artificial bait, after six days. How it is done:
Biological Test 1 Insecticidal Activity Against Larvae of Spodoptera litura
Emulsifiable concentrates were prepared for each of the present compounds according to the formulation example 1. Thirteen grams of artificial bait for Spodoptera litura were placed in a polyethylene cup (diameter: 11 cm) and impregnated with 2 ml of the emulsifiable concentrate diluted with water (500 ppm). Ten 4-instar larvae of Spodoptera litura were put in the polyethylene cup. After six days, the mortality of the larvae was examined.

For another series, the system named is Blattella germanica. As to the kind of experiment: Insecticidal activity against Blattella germanica. The conditions noted are these: 24 h, 0.7 ml of 500 ppm on filter paper, ten male cockroaches, after one day. Type of series: in vivo. How it is done: Biological Test 3 Insecticidal Avtivity Against Blattella germanica
Filter paper of 5.5 cm in diameter was laid in the bottom of a polyethylene cup (diameter: 5.5 cm). After 0.7 ml of a 500 ppm aqueous solution obtained by diluting each emulsifiable concentrate prepared from each of the present compounds according to the formulation example 1 was dropped on the filter paper and approximately 30 mg of sucrose was uniformly scattered and put on the filter paper as bait, ten male cockroaches (Blattella germanica) were left in the cup with a cover. After one day, the mortality was examined for the cockroaches.

For series [5], the system named is larvae of Nilaparvata lugens. As to the kind of experiment: Insecticidal activity against larvae of Nilaparvata lugens. Format: in vivo. The conditions noted are these: 500 ppm aqueous solution, rice stalk dip, approximately 30 larvae, after six days. On the procedure:
Biological Test 2 Insecticidal Activity Against Larvae of Nilaparvata lugens
A stalk of a rice plant was dipped for one minute in a 500 ppm aqueous solution obtained by diluting each emulsifiable concentrate prepared from each of the present compounds according to the formulation example 1 and then air-dried. The rice plant stalk was placed in a polyethylene cup (diameter: 5.5 cm) where filter paper (diameter: 5.5 cm) impregnated with 1 ml of water was put. Approximately 30 larvae of Nilaparvata lugens were put in the polyethylene cup. After six days, the activity was evaluated according to the following criteria:
B: the number of the living larvae is not greater than 5
C: the number of the living larvae is 6 or more

In turn, `CCC(C)SP(=O)(NC)OC` (centres unmarked) [A, reference compound] came in with a mortality at 168 h in series [1] (5 mg/kg) of 100%.

Take `CCOP(=O)(SC(C)CC)N(CC#N)C(=O)OC` (centres unmarked) [Compound 9, O-ethyl S-sec-butyl N-cyanomethyl N-methoxycarbonyl phosphoroamidothiolate]: the Activity entry with root-knot nematodes was “-”; in the series with Tetranychus cinnabarinus, “-”; in series [2], “A (Mortality 100%)”; in series [3], “A (Mortality not less than 90%)”. The mortality at 168 h in series [1] (30 mg/kg) was found to be 0%. In addition, the mortality at 500 ppm (in the series with Musca domestica; in [4]; in the series on Blattella germanica) was 100% throughout.

With `CCOP(=O)(SC(C)CC)N(CCC#N)C(=O)SC` (centres unmarked) [Compound 13], the Activity entry in the series on root-knot nematodes was “-”; in the series with Tetranychus cinnabarinus, “-”; in series [2] it was “A (Mortality 100%)”; in series [3], “A (Mortality not less than 90%)”. The compound further had a mortality at 168 h in [1] (30 mg/kg) of 0%. The mortality at 500 ppm (in the series with Musca domestica; in [4]; in the series on Blattella germanica) was 100% throughout.

For the compound `CCOP(=O)(SC(C)CC)N(CC#N)C(=O)c1ccccc1` (centres unmarked) [Compound 16], the Activity result is on record as “-” in the series with root-knot nematodes; “-” in the series on Tetranychus cinnabarinus; “A (Mortality 100%)” in series [2]; “A (Mortality not less than 90%)” in series [3]; “A (no living larvae)” in series [5]. For the same compound, the mortality at 500 ppm (with Musca domestica; in series [4]; in the series on Blattella germanica) was 100% each time.

For the compound `CCOP(=O)(SC(C)CC)N(CC#N)C(=O)OC(C)C` (centres unmarked) [Compound 17], the Activity result with root-knot nematodes is reported as “-”; with Tetranychus cinnabarinus it was “-”; in series [2] it was “A (Mortality 100%)”; in [3], “A (Mortality not less than 90%)”; in series [5] it was “A (no living larvae)”. The mortality at 500 ppm (in the series on Musca domestica; in series [4]; in the series on Blattella germanica) was 100% in each case.

As to `CCOP(=O)(SC(C)CC)N(CC#N)C(=O)OCC(C)C` (centres unmarked) [Compound 18], the Activity result in the series with root-knot nematodes was “-”; with Tetranychus cinnabarinus, “-”; in [2], “A (Mortality 100%)”; in [3], “A (Mortality not less than 90%)”; in series [5], “A (no living larvae)”. For the same compound, the mortality at 500 ppm (in the series on Musca domestica; in series [4]; in the series with Blattella germanica) was 100% in each case.
